What was measured:
CDK2/Cyclin E1 = CDK2/Cyclin E1 (Homo sapiens, UniProt P24941); test: CDK2/Cyclin E1 Biochemical Assay (TR-FRET), 0.060 mM ATP; conditions: 0.15 μM Rb (Ser780)-biotin substrate, pH7.0, 60 min preincubation, 120 min reaction, room temperature
Method in brief: (§1)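 IC50 was from a four-parameter logistic fit of the 665/620 nm TR-FRET ratio (Eu anti-pRb Ser780 mAb, streptavidin-XL665). Compound (0-10 μM) was preincubated 60 min with enzyme, then reacted 120 min at room temperature with 0.15 μM biotinylated Rb (Ser780) peptide. ATP was 0.015 mM for CDK1/Cyclin B1 and 0.060 mM for CDK2/Cyclin E1; buffer was HEPES pH7.0.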

CDK1/Cyclin B1 = CDK1/Cyclin B1 (Homo sapiens, UniProt P06493); test: CDK1/Cyclin B1 Biochemical Assay (TR-FRET), 0.015 mM ATP; conditions: 0.15 μM Rb (Ser780)-biotin substrate, pH7.0, 60 min preincubation, 120 min reaction, room temperature
Method in brief: as §1

Sequence of CDK1/Cyclin B1 (P06493 whole entry): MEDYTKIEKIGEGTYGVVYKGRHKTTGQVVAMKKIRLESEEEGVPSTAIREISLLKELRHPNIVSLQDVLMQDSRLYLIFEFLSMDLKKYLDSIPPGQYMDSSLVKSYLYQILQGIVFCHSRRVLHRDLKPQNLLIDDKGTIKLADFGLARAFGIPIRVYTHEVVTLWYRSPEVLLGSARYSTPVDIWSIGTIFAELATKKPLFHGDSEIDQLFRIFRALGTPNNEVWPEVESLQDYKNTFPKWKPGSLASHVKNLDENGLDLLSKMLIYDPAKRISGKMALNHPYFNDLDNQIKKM
Sequence of CDK1/Cyclin B1 (P14635 whole entry partner): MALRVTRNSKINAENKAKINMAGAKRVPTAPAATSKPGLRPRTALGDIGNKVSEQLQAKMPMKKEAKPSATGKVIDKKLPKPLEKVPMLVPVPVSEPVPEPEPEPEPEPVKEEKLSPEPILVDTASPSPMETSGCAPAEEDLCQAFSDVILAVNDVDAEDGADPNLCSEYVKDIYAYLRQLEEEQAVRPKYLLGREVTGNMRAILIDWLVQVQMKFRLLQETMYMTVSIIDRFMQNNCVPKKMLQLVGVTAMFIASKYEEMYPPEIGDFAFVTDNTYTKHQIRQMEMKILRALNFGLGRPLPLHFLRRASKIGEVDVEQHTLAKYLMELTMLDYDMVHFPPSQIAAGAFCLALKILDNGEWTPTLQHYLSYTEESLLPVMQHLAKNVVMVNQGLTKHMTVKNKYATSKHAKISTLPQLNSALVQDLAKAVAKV

CCCNC(=O)O[C@H]1CC[C@@H](c2cc(Nc3ccc4c(c3F)CS(=O)(=O)N4CCO)n[nH]2)C1 (single isomer, unassigned) [Example 272b, cis-3-(3-((4-fluoro-1-(2-hydroxyethyl)-2,2-dioxido-1,3-dihydrobenzo[c]isothiazol-5-yl)amino)-1H-pyrazol-5-yl)cyclopentyl propylcarbamate]
IC50 (CDK2/Cyclin E1): 3 nM
IC50 (CDK1/Cyclin B1): 59 nM

COCC1(NC(=O)O[C@H]2CC[C@@H](c3cc(Nc4ccc5c(c4)CS(=O)(=O)N5C)n[nH]3)C2)CC1 (relative stereo) [Example 228, cis-3-(3-((1-methyl-2,2-dioxido-1,3-dihydrobenzo[c]isothiazol-5-yl)amino)-1H-pyrazol-5-yl)cyclopentyl(1-(methoxymethyl)cyclopropyl)carbamate]
IC50 (CDK2/Cyclin E1): 9.4 nM
IC50 (CDK1/Cyclin B1): 123 nM

CC(C)NC(=O)OC1CC(c2cc(Nc3ccc4c(c3F)CNS4(=O)=O)n[nH]2)C1 (centres unmarked) [Example 137, 3-(3-((4-fluoro-1,1-dioxido-2,3-dihydrobenzo[d]isothiazol-5-yl)amino)-1H-pyrazol-5-yl)cyclobutyl isopropylcarbamate]
IC50 (CDK2/Cyclin E1): 35 nM
IC50 (CDK1/Cyclin B1): 375 nM

CC1NS(=O)(=O)c2ccc(Nc3cc([C@@H]4CC[C@H](OC(=O)NC5(C)CC5)C4)[nH]n3)c(F)c21 (single isomer, unassigned) [Example 52c, cis-3-(3-((4-fluoro-3-methyl-1,1-dioxido-2,3-dihydrobenzo[d]isothiazol-5-yl)amino)-1H-pyrazol-5-yl)cyclopentyl(1-methylcyclopropyl)carbamate]
IC50 (CDK2/Cyclin E1): 1.9 nM
IC50 (CDK1/Cyclin B1): 154 nM

Cc1c(Nc2cc([C@@H]3CC[C@H](OC(=O)NC(C)C)C3)[nH]n2)ccc2c1CN(CCO)S2(=O)=O (relative stereo) [Example 37, cis-3-(3-((2-(2-hydroxyethyl)-4-methyl-1,1-dioxido-2,3-dihydrobenzo[d]isothiazol-5-yl)amino)-1H-pyrazol-5-yl)cyclopentyl isopropylcarbamate]
IC50 (CDK2/Cyclin E1): 7.2 nM
IC50 (CDK1/Cyclin B1): 313 nM

CN1c2ccc(Nc3cc([C@@H]4CC[C@H](OC(=O)NC5COC5)C4)[nH]n3)cc2CS1(=O)=O (relative stereo) [Example 236, cis-3-(3-((1-methyl-2,2-dioxido-1,3-dihydrobenzo[c]isothiazol-5-yl)amino)-1H-pyrazol-5-yl)cyclopentyl oxetan-3-ylcarbamate]
IC50 (CDK2/Cyclin E1): 47 nM
IC50 (CDK1/Cyclin B1): 320 nM

CC(C)NC(=O)O[C@H]1CC[C@@H](c2cc(Nc3ccc4c(c3F)CN(CC3CC3)S4(=O)=O)n[nH]2)C1 (relative stereo) [Example 95, cis-3-(3-((2-(cyclopropylmethyl)-4-fluoro-1,1-dioxido-2,3-dihydrobenzo[d]isothiazol-5-yl)amino)-1H-pyrazol-5-yl)cyclopentyl isopropylcarbamate]
IC50 (CDK2/Cyclin E1): 15 nM
IC50 (CDK1/Cyclin B1): 972 nM

CC1(NC(=O)O[C@H]2CC[C@@H](c3cc(Nc4ccc5c(c4F)CS(=O)(=O)N5C4CC4)n[nH]3)C2)COC1 (relative stereo) [Example 362, cis-3-(3-((1-cyclopropyl-4-fluoro-2,2-dioxido-1,3-dihydrobenzo[c]isothiazol-5-yl)amino)-1H-pyrazol-5-yl)cyclopentyl(3-methyloxetan-3-yl)carbamate]
IC50 (CDK2/Cyclin E1): 3.8 nM
IC50 (CDK1/Cyclin B1): 133 nM

COCC(C)NC(=O)O[C@H]1CC[C@@H](c2cc(Nc3ccc4c(c3F)CN(C)S4(=O)=O)n[nH]2)C1 (relative stereo) [Example 338, cis-3-(3-((4-fluoro-2-methyl-1,1-dioxido-2,3-dihydrobenzo[d]isothiazol-5-yl)amino)-1H-pyrazol-5-yl)cyclopentyl(1-methoxypropan-2-yl)carbamate]
IC50 (CDK2/Cyclin E1): 13 nM
IC50 (CDK1/Cyclin B1): 544 nM

Cc1nc2c(cc1Nc1cc([C@@H]3CC[C@H](OC(=O)NC(C)C)C3)[nH]n1)CNS2(=O)=O (relative stereo) [Example 396, cis-3-(3-((6-methyl-1,1-dioxido-2,3-dihydroisothiazolo[5,4-b]pyridin-5-yl)amino)-1H-pyrazol-5-yl)cyclopentyl isopropylcarbamate]
IC50 (CDK2/Cyclin E1): 9.7 nM
IC50 (CDK1/Cyclin B1): 760 nM

CC(C)NC(=O)O[C@H]1CC[C@@H](c2cc(Nc3cc4c(cc3F)NS(=O)(=O)C4)n[nH]2)C1 (single isomer, unassigned) [Example 292b, cis-3-(3-((6-fluoro-2,2-dioxido-1,3-dihydrobenzo[c]isothiazol-5-yl)amino)-1H-pyrazol-5-yl)cyclopentyl isopropylcarbamate]
IC50 (CDK2/Cyclin E1): 5.2 nM
IC50 (CDK1/Cyclin B1): 457 nM

CC(C)NC(=O)O[C@H]1CC[C@@H](c2cc(Nc3ccc4c(c3F)CN(CC3CN(C)C3)S4(=O)=O)n[nH]2)C1 (relative stereo) [Example 106, cis-3-(3-((4-fluoro-2-((1-methylazetidin-3-yl)methyl)-1,1-dioxido-2,3-dihydrobenzo[d]isothiazol-5-yl)amino)-1H-pyrazol-5-yl)cyclopentyl isopropylcarbamate]
IC50 (CDK2/Cyclin E1): 6 nM
IC50 (CDK1/Cyclin B1): 631 nM

COCC(C)(C)NC(=O)O[C@H]1CC[C@@H](c2cc(Nc3ccc4c(c3F)CS(=O)(=O)N4CC(F)(F)F)n[nH]2)C1 (relative stereo) [Example 416, cis-3-(3-((4-fluoro-2,2-dioxido-1-(2,2,2-trifluoroethyl)-1,3-dihydrobenzo[c]isothiazol-5-yl)amino)-1H-pyrazol-5-yl)cyclopentyl(1-methoxy-2-methylpropan-2-yl)carbamate]
IC50 (CDK2/Cyclin E1): 2.1 nM
IC50 (CDK1/Cyclin B1): 67 nM

CC1(NC(=O)O[C@H]2CC[C@@H](c3cc(Nc4ccc5c(c4F)CN(C4CC4)S5(=O)=O)n[nH]3)C2)CC1 (racemic) [Example 119, cis-3-(3-((2-cyclopropyl-4-fluoro-1,1-dioxido-2,3-dihydrobenzo[d]isothiazol-5-yl)amino)-1H-pyrazol-5-yl)cyclopentyl(1-methylcyclopropyl)carbamate]
IC50 (CDK2/Cyclin E1): 2.7 nM
IC50 (CDK1/Cyclin B1): 146 nM

CCCNC(=O)O[C@H]1CC[C@@H](c2cc(Nc3cc4c(cc3F)NS(=O)(=O)C4)n[nH]2)C1 (relative stereo) [Example 293, cis-3-(3-((6-fluoro-2,2-dioxido-1,3-dihydrobenzo[c]isothiazol-5-yl)amino)-1H-pyrazol-5-yl)cyclopentyl propylcarbamate]
IC50 (CDK2/Cyclin E1): 64 nM
IC50 (CDK1/Cyclin B1): 1120 nM

CC(C)NC(=O)O[C@H]1CC[C@@H](c2cc(Nc3ccc4c(c3F)CN(CCCN(C)C)S4(=O)=O)n[nH]2)C1 (relative stereo) [Example 73, cis-3-(3-((2-(3-(dimethylamino)propyl)-4-fluoro-1,1-dioxido-2,3-dihydrobenzo[d]isothiazol-5-yl)amino)-1H-pyrazol-5-yl)cyclopentyl isopropylcarbamate]
IC50 (CDK2/Cyclin E1): 7.9 nM
IC50 (CDK1/Cyclin B1): 583 nM

COCCN1Cc2c(ccc(Nc3cc([C@@H]4CC[C@H](OC(=O)NC(C)C)C4)[nH]n3)c2F)S1(=O)=O (relative stereo) [Example 64, cis-3-(3-((4-fluoro-2-(2-methoxyethyl)-1,1-dioxido-2,3-dihydrobenzo[d]isothiazol-5-yl)amino)-1H-pyrazol-5-yl)cyclopentyl isopropylcarbamate]
IC50 (CDK2/Cyclin E1): 4.6 nM
IC50 (CDK1/Cyclin B1): 214 nM

CC[C@H](C)NC(=O)O[C@H]1CC[C@@H](c2cc(Nc3ccc4c(c3F)CN(C3CC3)S4(=O)=O)n[nH]2)C1 (single isomer, unassigned) [Example 117b]
IC50 (CDK2/Cyclin E1): 1.8 nM
IC50 (CDK1/Cyclin B1): 91 nM

CN1c2ccc(Nc3cc([C@H]4CC[C@@H](OC(=O)NC(C)(C)C)C4)[nH]n3)cc2CS1(=O)=O [Example 391a]
IC50 (CDK2/Cyclin E1): 0.7 nM
IC50 (CDK1/Cyclin B1): 17 nM
